Laboratory results from patent US12012411B2, “Viral replication inhibitors” (Katholieke Universiteit Leuven, priority 2011, dated 2024).

Experiments:
in vitro = details: African green monkey; for CC50 at 4 days: uninfected quiescent Vero-B cells
DENV-2 NGC = test: Antiviral activity against DENV-2 NGC in Vero-B cells (viral RNA load by RT-qPCR); format: cell-based, Dengue virus; details: Dengue virus, DENV2, Vero B, DENV-2 in Vero-B cells; inhibition of viral RNA replication by 50% (Table 3)

SMILES | CC50 at 4 days (in vitro) [µM] | EC50 (DENV-2 NGC) [µM] | CC50 (in vitro) [µM]
NC(=O)c1cccc(NC(C(=O)c2c[nH]c3ccccc23)c2ccccc2)c1 (stereo not shown) [CPD-065] | 90 | 12.1 | –
CC(NC(C(=O)c1c[nH]c2ccccc12)c1ccccc1)c1ccco1 (stereo not shown) [CPD-180] | > 145 | 57 | –
O=C(c1c[nH]c2ccccc12)C(Nc1cccc(C(F)(F)F)c1)c1ccccc1 (stereo not shown) [CPD-009] | 4 | 0.66 | –
COc1cccc(NC(C(=O)c2nn(C)c3ccc(C#N)cc23)c2ccccc2)c1 (stereo not shown) [CPD-275] | > 126 | 9.96 | –
COc1cc(NC(C(=O)c2csc3ccccc23)c2cn3ccccc3n2)ccn1 (stereo not shown) [CPD-199] | > 120 | 24.9 | –
COc1cccc(NC(C(=O)c2c[nH]c3ccccc23)c2[nH]cnc2C)c1 (stereo not shown) [CPD-125] | > 138 | 7.19 | –
NS(=O)(=O)c1cccc(NC(C(=O)c2c[nH]c3ccccc23)c2ccccc2)c1 (stereo not shown) [CPD-187] | 58 | 3.18 | –
COc1cccc(NC(C(=O)c2c[nH]c3ccccc23)c2cc3n(n2)CCOC3)c1 (stereo not shown) [CPD-311] | 77 | 2.58 | –
COc1cccc(NC(C(=O)c2c[nH]c3cc(O)ccc23)c2ccccc2)c1 (stereo not shown) [CPD-134] | 49 | 0.46 | –
CCOc1cccc(NC(C(=O)c2c[nH]c3ccccc23)c2ccccc2)c1 (stereo not shown) [CPD-003] | 13 | 0.11 | –
COc1cccc(NC(C(=O)c2c[nH]c3ccccc23)c2cn3c(F)cccc3n2)c1 (stereo not shown) [CPD-109] | 84 | 0.53 | –
O=C(O)c1cccc(NC(C(=O)c2c[nH]c3ccccc23)c2ccccc2)c1 (stereo not shown) [CPD-071] | 135 | 60.9 | –
COc1cccc(NC(C(=O)c2cn(CC(=O)O)c3ccccc23)c2ccccc2)c1 (stereo not shown) [CPD-106] | – | 8.93 | > 120
COc1cncc(NC(C(=O)c2nn(C)c3ccccc23)c2ccccc2)n1 (stereo not shown) [CPD-276] | 23 | 2.62 | –
CCOc1cncc(NC(C(=O)c2c[nH]c3ccccc23)c2ccccc2)c1 (stereo not shown) [CPD-246] | 16 | 0.32 | –
COc1cccc(NC(C(=O)c2c[nH]c3ccccc23)c2ncc[nH]2)c1 (stereo not shown) [CPD-028] | > 144 | 135 | –
O=C(c1c[nH]c2ccccc12)C(Nc1ccc(F)c(F)c1)c1ccccc1 (stereo not shown) [CPD-007] | 5 | 2.53 | –
COc1cccc(NC(C(=O)c2c[nH]c3cc(C(=O)O)ccc23)c2ccccc2)c1 (stereo not shown) [CPD-135] | > 124 | 40.7 | –
COc1cc(NC(C(=O)c2cn(C)c3ccccc23)c2ccccc2)ccn1 (stereo not shown) [CPD-100] | 42 | 12 | –
COc1cncc(NC(C(=O)c2c[nH]c3c(CCO)cccc23)c2ccccc2)c1 (stereo not shown) [CPD-364] | 62 | 1.12 | –

SMILES | CC50 at 4 days (in vitro) [µM] | EC50 (DENV-2 NGC) [µM] | CC50 (in vitro) [µM]
COc1cccc(NC(C(=O)c2c[nH]c3ccccc23)c2ccc(O)nc2)c1 (stereo not shown) [CPD-063] | > 134 | 14.3 | –
COc1cc(NC(C(=O)c2c[nH]c3ccc(CCO)cc23)c2ccccc2)cc(OC)c1 (stereo not shown) [CPD-370] | 66 | 0.06 | –
O=C(c1c[nH]c2ccccc12)C(Nc1cccc(-n2cncn2)c1)c1ccccc1 (stereo not shown) [CPD-058] | 64 | 2.85 | –
COc1cccc(NC(C(=O)c2nn(C)c3c2CNCC3)c2ccccc2)c1 (stereo not shown) [CPD-221] | 80 | 29.3 | –
COc1cccc(NC(C(=O)c2c[nH]c3ccc(CN(C)C)cc23)c2ccccc2)c1 (stereo not shown) [CPD-228] | 13 | 1.62 | –
CCOc1ccc(NC(C(=O)c2c[nH]c3ccccc23)c2ccccc2)cc1CO (stereo not shown) [CPD-192] | 50 | 5.62 | –
COc1cccc(NC(C(=O)c2nn(C)c3ccccc23)c2ccc(OC)nc2)c1 (stereo not shown) [CPD-264] | > 124 | 0.51 | –
COc1cccc(NC(C(=O)c2cn(S(=O)(=O)c3cn(C)cn3)c3ccccc23)c2ccccc2)c1 (stereo not shown) [CPD-209] | > 100 | 1.12 | –
COc1cccc(NC(C(=O)c2c[nH]c3ccccc23)c2cccc(C#N)c2)c1 (stereo not shown) [CPD-041] | 14 | 0.5 | –
COc1cc(NC(C(=O)c2c[nH]c3ccccc23)c2cn3c(F)cccc3n2)ccn1 (stereo not shown) [CPD-081] | 50 | 10.8 | –
COc1cccc(NC(C(=O)c2c[nH]c3ccccc23)c2ccc(CN(C)C)cc2)c1 (stereo not shown) [CPD-124] | 3 | 0.56 | –
COc1cccc(NC(C(=O)c2c[nH]c3ccccc23)c2cnccn2)c1 (stereo not shown) [CPD-274] | 100 | 0.39 | –
COc1cc(NC(C(=O)c2c[nH]c3ccccc23)c2ccccc2)cnc1N(C)C (stereo not shown) [CPD-257] | 17 | 0.45 | –
COc1cc(NC(C(=O)c2c[nH]c3ccccc23)c2ccccc2)cc(C(F)(F)F)c1 (stereo not shown) [CPD-014] | 8 | 0.02 | –
COc1cc(NC(C(=O)c2c[nH]c3c(Cl)cccc23)c2ccccc2)ccn1 (stereo not shown) [CPD-101] | 11 | 4.9 | –
COc1cccc(NC(C(=O)c2nn(C)c3cc(C#N)ccc23)c2ccccc2)c1 (stereo not shown) [CPD-286] | > 126 | 1.05 | –
COc1cccc(NC(C(=O)c2c[nH]c3ccncc23)c2ccccc2)c1 (stereo not shown) [CPD-201] | 74 | 12.2 | –
CCc1cccc2c(C(=O)C(Nc3ccc(NC(=O)CN4CCOCC4)cc3)c3ccccc3)c[nH]c12 (stereo not shown) [CPD-186] | 40 | 4.35 | –
O=C(c1c[nH]c2ccccc12)C(Nc1ccc2nccnc2c1)c1ccccc1 (stereo not shown) [CPD-050] | 87 | 2.4 | –
COc1cc(C)nc(NC(C(=O)c2c[nH]c3ccccc23)c2ccccc2)n1 (stereo not shown) [CPD-062] | > 134 | 0.58 | –

SMILES | CC50 at 4 days (in vitro) [µM] | EC50 (DENV-2 NGC) [µM] | CC50 (in vitro) [µM]
CN(Cc1ccco1)C(C(=O)c1c[nH]c2ccccc12)c1ccccc1 (stereo not shown) [CPD-189] | > 145 | 0.93 | –
COc1cccc(NC(C(=O)c2c[nH]c3ccccc23)c2ccc(-c3cncnc3)cc2)c1 (stereo not shown) [CPD-048] | > 115 | 2.09 | –
O=C(c1c[nH]c2ccccc12)C(NCC1COc2ccccc2O1)c1ccccc1 (stereo not shown) [CPD-190] | 11 | 1.71 | –
COc1cccc(NC(C(=O)c2c[nH]c3ccccc23)c2cccnc2OC)c1 (stereo not shown) [CPD-215] | 14 | 0.16 | –
COc1cc(NC(C(=O)c2c[nH]c3ccccc23)c2cscn2)ccn1 (stereo not shown) [CPD-082] | 109 | 61.9 | –
COc1cccc(NC(C(=O)c2cccc3[nH]ccc23)c2ccccc2)c1 (stereo not shown) [CPD-302] | 15 | 0.65 | –
COc1cc(NC(C(=O)c2c[nH]c3cc(F)ccc23)c2ccccc2)ccn1 (stereo not shown) [CPD-075] | 102 | 1.52 | –
COc1cccc(NC(C(=O)c2c[nH]c3ccccc23)c2ccc3c(c2)n(C)c(=O)n3C)c1 (stereo not shown) [CPD-060] | > 113 | 10.3 | –
Cc1cc(NC(C(=O)c2c[nH]c3ccccc23)c2ccccc2)no1 (stereo not shown) [CPD-022] | 77 | 12.8 | –
COc1cccc(NC(C(=O)c2cn(CCN3CCOCC3)c3ccccc23)c2ccccc2)c1 (stereo not shown) [CPD-216] | – | 0.84 | > 106
COc1cccc(NC(C(=O)c2c[nH]c3ccc(S(=O)(=O)N(C)C)cc23)c2ccccc2)c1 (stereo not shown) [CPD-129] | > 108 | 1.09 | –
CCc1cccc(NC(C(=O)c2c[nH]c3ccccc23)c2ccccc2)c1 (stereo not shown) [CPD-046] | 17 | 0.65 | –
COc1cccc(NC(C(=O)c2c[nH]c3cccc(OC)c23)c2ccccc2)c1 (stereo not shown) [CPD-231] | 18 | 1.22 | –
COc1cccc(NC(C(=O)c2c[nH]c3cccnc23)c2ccccc2)c1 (stereo not shown) [CPD-195] | 65 | 12.7 | –
O=C(c1c[nH]c2ccccc12)C(Nc1ccnc(O)c1)c1ccccc1 (stereo not shown) [CPD-031] | > 145 | 50.2 | –
COc1cc(NC(C(=O)c2c[nH]c3c(CCO)cccc23)c2ccc(F)cc2)cc(OC)c1 (stereo not shown) [CPD-371] | 12 | 0.03 | –
O=C(c1c[nH]c2ccccc12)C(NCc1ccccn1)c1ccccc1 (stereo not shown) [CPD-032] | > 146 | 55.5 | –
COc1ccc2c(C(=O)C(Nc3ccnc(OC)c3)c3ccccc3)c[nH]c2c1 (stereo not shown) [CPD-076] | 115 | 3.77 | –
O=C(c1c[nH]c2ccccc12)C(NCc1cccs1)c1ccccc1 (stereo not shown) [CPD-033] | 71 | 9.15 | –
